Test results as given in ChEMBL document CHEMBL1141815, “KR025, a new cytotoxic compound from Myxococcus fulvus” (J Nat Prod, 1999).
Converted amounts (≈) assume the structure as drawn.

Columns and labels:
Format in all cases: functional, cell-based
SK-OV-3 = experiment: Cytotoxicity against human SKOV3 cells after 72 hrs by SRB assay; conditions: SK-OV-3, 72 h
A549 = experiment: Cytotoxicity against human A549 cells after 72 hrs by SRB assay; conditions: A549, 72 h
XF498 = experiment: Cytotoxicity against human XF498 cells after 72 hrs by SRB assay; conditions: XF498, 72 h
SK-MEL-2 = experiment: Cytotoxicity against human SK-MEL-2 cells after 72 hrs by SRB assay; conditions: SK-MEL-2, 72 h
HCT-15 = experiment: Cytotoxicity against human HCT-15 cells after 72 hrs by SRB assay; conditions: HCT-15, 72 h

COC(=O)/C=C(/OC)[C@H](C)[C@H](/C=C/c1csc(-c2cnc([C@@H](C)/C=C/C=C/C(C)C)s2)n1)OC
IC50 (SK-OV-3): 0.04 ng/mL (≈ 0.0796 nM) | IC50 (A549): 0.02 ng/mL (≈ 0.0398 nM) | IC50 (XF498): 0.03 ng/mL (≈ 0.0597 nM) | IC50 (SK-MEL-2): 8.5 ng/mL (≈ 16.9 nM) | IC50 (HCT-15): 0.06 ng/mL (≈ 0.119 nM)

CCCCCC[C@H]1C(=O)O[C@H](C)[C@H](NC(=O)c2cccc(NC=O)c2O)C(=O)O[C@@H](C)[C@@H]1OC(=O)CC(C)C [ANTIMYCIN A]
IC50 (SK-OV-3): 5500 ng/mL (≈ 10000 nM) | IC50 (A549): 480 ng/mL (≈ 875 nM) | IC50 (XF498): 390 ng/mL (≈ 711 nM) | IC50 (SK-MEL-2): 270 ng/mL (≈ 492 nM) | IC50 (HCT-15): 410 ng/mL (≈ 747 nM)

CO/C(=C/C(N)=O)[C@H](C)[C@H](/C=C/c1csc(-c2csc([C@@H](C)/C=C/C=C/C(C)C)n2)n1)OC [MYXOTHIAZOL]
IC50 (SK-OV-3): 0.01 ng/mL (≈ 0.0205 nM) | IC50 (A549): 0.01 ng/mL (≈ 0.0205 nM) | IC50 (XF498): 0.03 ng/mL (≈ 0.0615 nM) | IC50 (SK-MEL-2): 9.7 ng/mL (≈ 19.9 nM) | IC50 (HCT-15): 0.03 ng/mL (≈ 0.0615 nM)
